From US20070244196A1, “Prostaglandin F2alpha derivative-containing product” (SANTEN PHARMACEUTICAL CO., LTD., priority 2004, published 2007) come the findings set out here.

The series in a line: Storage stability test (eye drop in contact with resin containers, 40° C. for 7 days, HPLC). The note with it: eye drop (present compound 0.0005%, polysorbate 80 0.05%, pH about 6), containers of propylene/ethylene random copolymer (98.7/1.3, 97.4/2.6, 96.4/3.6) compared with propylene homopolymer container. The series is classed as physicochemical. As for the experimental part: Hereinafter, the present invention will be described in detail through carrying out a storage stability test (40° C. for 7 days). However, such descriptions are disclosed for the purpose of understanding the present invention better and are not meant to limit the scope of the present invention.
As a typical example of a prostaglandin F2α derivative having at least a fluorine atom in its molecule, 16-phenoxy-15-deoxy-15,15-difluoro-17,18,19,20-tetranor-prostaglandin F2α isopropyl ester (hereinafter, referred to as the “present compound” ) was used. The present compound (0.0005%) and polysorbate 80 (0.05%) were dissolved in purified water, and then, commonly used additives such as disodium edetate (q.s.), concentrated glycerin (q.s.), benzalkonium chloride (q.s.) and the like were added thereto to obtain an eye drop with an osmotic pressure of about 1 and a pH of about 6. […]
The eye drop (110 ml) obtained in the section of “(1) Preparation of Eye Drop” was placed in a glass container and the glass container was heated to 40° C. […] The amount of the present compound contained in the glass container was measured by high performance liquid chromatography before and after the storage, and the content of the present compound (average) was calculated taking the content of the present compound at the time of initiation of storage as 100%.

Regarding `CC(C)OC(=O)CCC/C=C\C[C@@H]1[C@@H](/C=C/C(F)(F)COc2ccccc2)[C@H](O)C[C@@H]1O` [present compound, 16-phenoxy-15-deoxy-15,15-difluoro-17,18,19,20-tetranor-prostaglandin F2α isopropyl ester], the “content of the present compound (average), content at the time of initiation of storage taken as 100%” value is listed as “higher”.
